Values of other authors, collected in patent US9248110B2, “Compositions and methods of treating and preventing lung cancer and lymphangioleiomyomatosis” (priority 2010, dated 2016).
Read-outs that look alike come from different tables or passages of the source.

Test system: Lewis lung LLC1 cells
Conditions: orally administered

CN(C)C(=N)N=C(N)N [metformin]
tumor growth (mice fed a high-energy diet): reduce tumor growth | tumor growth (mice on a control diet): no effect on tumor growth
